According to US20200261534A1, “NEW TREATMENTS OF MULTIPLE MYELOMA” (priority 2017, published 2020):
Read-outs that look alike come from different tables or passages of the source. Starred links: 1 amine or outer side, 2 acyl side, 3 side chain; linkers in the order of their positions; H or OH if unused. Positions of bridges follow the written chain, without caps; N, C: chain ends. Non-standard residues stand in square brackets, D forms with d. Residues, ends and D or L forms follow the SMILES beside them. ξ: configuration not given here. Biphenyl(4,4'-CH2)2 = c1cc(-c2ccc(C[*:2])cc2)ccc1C[*:1]; ξαMeNle(6-ylidene) = CC(CCCC=[*:3])(N[*:1])C(=O)[*:2]; X1 = CC(CCCCCCC=[*:3])(N[*:1])C(=O)[*:2]; Octanediyl(1,8) = C(CCCC[*:2])CCC[*:1]; ξC = NC(CS)C(=O)O

Legend:
[1] = system: MM1R, lymphoblast (myeloma), resistant to Dexamethasone
Protocol: MM1R, lymphoblast, (myeloma), ATCC® CRL-2975™, resistant to Dexamethasone
(§1) All cell lines were cultured in incubator at 37° C. in RPMI-1640 (Sigma R8758) medium with 10% of fetal bovine serum inactivated (FBS) and 2 mM glutamine (Sigma G7513). During the amplification step cells were centrifuged and transferred into the culturing medium. Cells were counted in a Neubauer chamber after labelling with Tripan-Blue.
(§2) Cells were seeded at a density of 10000 cells/well in 100 μl of medium in 96 well plates. After 24 h, the compounds to be tested were added to calculate the dose/response curve at the starting concentration of 100 μM with serial dilutions (1:1). Controls are the untreated cells. Each experiment was performed in triplicate.
(§3) Cells were incubated with the peptidomimetic compound (S09) at the indicated concentrations during 24-72 h in incubator under CO2 atmosphere at 37° C. Then, cell viability was measured by means of MTT (3-(4,5-dimethylthiazol-2-yl)-2,5-diphenyltetrazolium bromide) assay. Stock solution of MTT (475989 Calbiochem) was 5 mg/ml in PBS. 1×.10 μl/well of MTT solution were added and the plate was incubated for 3-4 hr. The medium was discarded and 100 μl of extracting buffer (PBS 1×, 15% SDS, 50% […] N,N-Dimethylformamide, pH 4.7) were added to each well. Plates were incubated for 16 h at room temperature under orbital shaking. Absorbance at 570 nm was finally measured. As negative control (experiment noise) 3 wells were treated with 20 μl/well of a solution of SDS 10% in H2O.
(§4) Data analysis was performed calculating the percentage of cell viability normalized vs. the values of negative control, which was considered equal to 100%. The dose/response curve was fitted through the sigmoidal equation dose-response (variable slope) and the IC50 values were calculated as follow:
(§5) Y=Bottom+(Top−Bottom)/(1+10^{[(LogIC50−X)*HillSlope]},
(§6) All cell lines were cultured in incubator at 37° C. in RPMI-1640 (Sigma R8758) medium with 10% of fetal bovine serum inactivated (FBS) and 2 mM glutamine (Sigma G7513).
as §2, with “of 10,000” for “of 10000”, “of 40” for “of 100”
as §3, with “compounds” for “compound (S09)”

[2] = system: RPMI-8266-LR5, lymphoblast (myeloma), selected for resistance to Melphalan; format: cell-based
Protocol: RPMI-8266-LR5, lymphoblast (myeloma), selected for resistance to Melphalan (Bellamy W T et al., Cancer Res. 1991 Feb. 1; 51(3):995-1002).
as §1, §2, §3, §4, §5, §6
as §2, with “of 10,000” for “of 10000”, “of 40” for “of 100”
as §3, with “compounds” for “compound (S09)”

[3] = system: U266DOX4, lymphoblast (myeloma), selected for resistance to Doxorubicin; format: cell-based
Protocol: U266DOX4, lymphoblast (myeloma), selected for resistance to Doxorubicin (Alvarez-Fernández et al. Clin Cancer Res. 2013 May 15; 19(10):2677-87).
as §1, §2, §3, §4, §5
U266DOX4, lymphoblast (myeloma), selected for resistance to Doxorubicin (Alvarez-Fernandez et al. Clin Cancer Res. 2013 May 15; 19(10):2677-87).
as §6
Cells were seeded at a density of 10,000 cells/well in 100 μl of medium in 96 well plates. After 24 h, the compounds to be tested were added to calculate the dose/response curve at the starting concentration of 40 μM with serial dilutions (1:1). […]
Cells were incubated with the peptidomimetic compounds at the indicated concentrations during 24-72 h in incubator under CO2 atmosphere at 37° C. Then, cell viability was measured by means of MTT (3-(4,5-dimethylthiazol-2-yl)-2,5-diphenyltetrazolium bromide) assay. […] Absorbance at 570 nm was finally measured. […]

[4] = system: MBA-MD231, epithelial (breast cancer); test: MTT viability assay, MBA-MD231; format: cell-based
Protocol: (§7) MBA-MD231, epithelial (breast cancer), ECACC: 86012803 […] During the amplification step and the assays adherent cells were rinsed with DPBS (Dulbecco's Phosphate Buffered Saline, Sigma D1283) three times and afterward treated for 5 minutes with trypsin ([…]) (Gibco-BRL, 15400054) in solution of DPBS at 37° C., and, once detached, transferred in the culturing medium. No-adherent cells were centrifuged and transferred in the culturing medium. Cells were counted in a Neubauer chamber after labelling with Tripan-Blue. […] Cells were seeded at a density of 10,000 cells/well in 100 μl of medium in 96 well plates. […] Controls are the untreated cells. Each experiment was performed in triplicate. Cells were incubated with the compounds at the indicated concentrations during 24-72 h in incubator under CO2 atmosphere at 37° C. […] Stock solution of MTT (475989 Calbiochem) was 5 mg/ml in PBS. 1×.10 μl/well of MTT solution were added and the plate was incubated for 3-4 hr. […] Plates were incubated for 16 h at room temperature under orbital shaking. Absorbance at 570 nm was finally measured. […] The dose/response curve was fitted through the sigmoidal equation dose-response (variable slope) and the IC50 values were calculated as follow: […]

[5] = system: NCI-H128, epithelial (small cell lung cancer); test: MTT viability assay, NCI-H128; format: cell-based
Protocol: as §7, with “NCI-[…],” for “MBA-MD231,”, “(small cell lung” for “(breast”, “ATCC: HTB-120TM” for “ECACC: 86012803”

[6] = RPMI-LR5, 72 hr, Table 14, read-out: IC50 after 72 hr values
[7] = U266DOX4, 72 hr, Table 14, read-out: IC50 after 72 hr values
[8] = RPMI-LR5, 24 hr, Table 13, read-out: IC50 after 24 hr values

Work on `CC[C@H](C)[C@H](NC(=O)[C@H](Cc1ccc(O)cc1)NC(=O)[C@H](C)NC(=O)C1CSCCCCCCCCSCC(NC(=O)[C@H](CCCCN)NC(=O)[C@@H]2CCCN2C(=O)[C@H](C)N)C(=O)N[C@@H](C(C)C)C(=O)N[C@@H]([C@@H](C)CC)C(=O)N[C@@H](CC(C)C)C(=O)N[C@@H](CCCCN)C(=O)N[C@@H](CCCCN)C(=O)N[C@@H](C)C(=O)N1)C(=O)N[C@@H](CC(C)C)C(=O)N[C@@H](CO)C(=O)O` (some centres unmarked) [IDP-P1708160] (H-APK[ξC]VILKKA[ξC]AYILS-OH; linker 4-11 via Octanediyl(1,8); N-terminus and C-terminus assumed) yielded an IC50 ([1]; 24 h) of 15 µM, an IC50 ([1]; 72 h) of 10 µM and an IC50 [2, 6] of 7.5 µM. The IC50 [3, 7] was 7.5 µM, the IC50 [4] was 42 ± 2 µM and the IC50 [5] was 16 ± 1 µM.
Work on `CC[C@H](C)[C@H](NC(=O)[C@H](Cc1ccc(O)cc1)NC(=O)[C@H](C)NC(=O)[C@@H]1CSCc2ccc(cc2)-c2ccc(cc2)CSC[C@H](NC(=O)[C@H](CCCCN)NC(=O)[C@@H]2CCCN2C(=O)[C@H](C)N)C(=O)N[C@@H](C(C)C)C(=O)N[C@@H]([C@@H](C)CC)C(=O)N[C@@H](CC(C)C)C(=O)N[C@@H](CCCCN)C(=O)N[C@@H](CCCCN)C(=O)N[C@@H](C)C(=O)N1)C(=O)N[C@@H](CC(C)C)C(=O)N[C@@H](CO)C(=O)O` [IDP-P1708161] (H-APKCVILKKACAYILS-OH; linker 4-11 via Biphenyl(4,4'-CH2)2; N-terminus and C-terminus assumed) yielded an IC50 ([1]; 24 h) of 12.5 µM, an IC50 ([1]; 72 h) of 15 µM and an IC50 [2, 8] of 35 µM. The IC50 [2, 6] was 35 µM, the IC50 [4] was 29 ± 2 µM and the IC50 [5] was 14 ± 1 µM.
For `CC[C@H](C)[C@H](NC(=O)[C@H](Cc1ccc(O)cc1)NC(=O)[C@H](C)NC(=O)C1(C)CCCC=CCCCCCCC(C)(NC(=O)[C@H](CCCCN)NC(=O)[C@@H]2CCCN2C(=O)[C@H](C)N)C(=O)N[C@@H](C(C)C)C(=O)N[C@@H]([C@@H](C)CC)C(=O)N[C@@H](CC(C)C)C(=O)N[C@@H](CCCCN)C(=O)N[C@@H](CCCCN)C(=O)N[C@@H](C)C(=O)N1)C(=O)N[C@@H](CC(C)C)C(=O)N[C@@H](CO)C(=O)O` (some centres unmarked) [S09, APKXVILKKAXAYILS—OH] (H-APK[X1]VILKKA[ξαMeNle(6-ylidene)]AYILS-OH; staple 4-11; N-terminus assumed), the IC50 ([1]; read-out: IC50 values in μM for S09, MM1R (resistant to Dexamethasone), MTT, 24-72 h, Table 7) was 8.3 µM, the IC50 ([2]; RPMI-LR5 (resistant to Melphalan), MTT, 24-72 h, Table 7, read-out: IC50 values in μM for S09) was 11.4 µM and the IC50 ([3]; U266DOX4 (resistant to Doxorubicin), MTT, 24-72 h, Table 7, read-out: IC50 values in μM for S09) was 5 µM. The IC50 ([4]; MBA-MD231, MTT, 24-72 h, Table 12, read-out: IC50 values) was 4.9 ± 0.3 µM and the IC50 ([5]; NCI-H128, MTT, 24-72 h, Table 12, read-out: IC50 values) was 3 ± 1 µM.
Work on `CC[C@H](C)[C@H](NC(=O)[C@H](Cc1ccc(O)cc1)NC(=O)[C@H](C)NC(=O)C1(C)CCCC=CCCCCCCC(C)(NC(=O)[C@H](CCCCN)NC(=O)[C@@H]2CCCN2C(=O)[C@H](C)N)C(=O)N[C@@H](C(C)C)C(=O)N[C@@H]([C@@H](C)CC)C(=O)N[C@@H](Cc2ccccc2)C(=O)N[C@@H](CCCCN)C(=O)N[C@@H](CCCCN)C(=O)N[C@@H](C)C(=O)N1)C(=O)N[C@@H](CC(C)C)C(=O)N[C@@H](CO)C(=O)O` (some centres unmarked) [S14, APKXVIFKKAXAYILS—OH] (H-APK[X1]VIFKKA[ξαMeNle(6-ylidene)]AYILS-OH; staple 4-11; N-terminus assumed) yielded an IC50 ([1]; 24 h) of 15 µM, an IC50 ([1]; 72 h) of 15 µM and an IC50 [2, 8] of 10 µM. The IC50 [2, 6] was 10 µM, the IC50 ([3]; U266DOX4, 24 hr, Table 13, read-out: IC50 after 24 hr values) was 15 µM and the IC50 [3, 7] was 15 µM.
